Residue numbers refer to the chain shown, from its start. “And” between values parts separate entries of the source, which are not always exact repeats. Identical values can stand only once. “Also recorded” adds a separate entry of the source. Like-named read-outs stand apart in the source and are kept apart here.
What was measured:
zebrafish TAAR13c = target: T1, zebrafish TAAR13c (Danio rerio, UniProt Q5QNP2); test: cell-based
T1 construct: expressed in transfected cells; host or cells: HEK-293
T1 sequence (Q5QNP2 1-341): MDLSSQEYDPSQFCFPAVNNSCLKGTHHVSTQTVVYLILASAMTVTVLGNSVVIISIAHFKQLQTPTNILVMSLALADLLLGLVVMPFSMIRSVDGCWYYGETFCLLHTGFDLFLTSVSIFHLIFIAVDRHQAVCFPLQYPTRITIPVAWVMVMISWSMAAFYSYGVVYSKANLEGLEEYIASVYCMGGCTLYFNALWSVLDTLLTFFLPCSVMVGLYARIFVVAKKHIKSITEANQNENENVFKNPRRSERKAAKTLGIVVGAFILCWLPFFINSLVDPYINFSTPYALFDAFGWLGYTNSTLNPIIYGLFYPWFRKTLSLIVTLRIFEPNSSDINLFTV

TAAR12i = target: T2, TAAR12i (Danio rerio, UniProt Q5QNN0, F195V/V105Y/V8A); test: Cre-Seap reporter gene assay, TAAR12i in Hana3A cells; format: cell-based, zebrafish
T2 sequence (Q5QNN0 1-340 V8A/V105Y/F195V): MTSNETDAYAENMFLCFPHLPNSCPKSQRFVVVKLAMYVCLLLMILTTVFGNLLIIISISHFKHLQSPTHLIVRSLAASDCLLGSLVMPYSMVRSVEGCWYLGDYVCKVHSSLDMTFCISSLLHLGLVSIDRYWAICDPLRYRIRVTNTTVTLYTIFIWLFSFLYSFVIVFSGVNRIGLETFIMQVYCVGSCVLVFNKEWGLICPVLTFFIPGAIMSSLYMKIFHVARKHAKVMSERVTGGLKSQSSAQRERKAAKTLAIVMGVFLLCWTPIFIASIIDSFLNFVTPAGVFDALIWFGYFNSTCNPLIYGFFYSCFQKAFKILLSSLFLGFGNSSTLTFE

zebrafish TAAR10a = target: T3, zebrafish TAAR10a (Danio rerio, UniProt Q5QNP6, I156V/V182I); test: cell-based; settings: HEK-293 cells, Cre-Seap reporter
T3 sequence (Q5QNP6 1-336 I156V/V182I): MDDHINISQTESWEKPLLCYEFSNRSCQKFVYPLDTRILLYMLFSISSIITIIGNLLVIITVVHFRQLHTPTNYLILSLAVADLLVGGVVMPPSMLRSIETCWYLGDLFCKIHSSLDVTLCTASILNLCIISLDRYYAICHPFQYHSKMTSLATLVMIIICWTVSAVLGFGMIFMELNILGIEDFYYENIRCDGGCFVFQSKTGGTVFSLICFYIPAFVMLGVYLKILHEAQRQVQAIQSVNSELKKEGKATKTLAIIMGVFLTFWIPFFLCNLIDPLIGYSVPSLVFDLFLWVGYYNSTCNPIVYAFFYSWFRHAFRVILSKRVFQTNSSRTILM

zebrafish TAAR13e = target: T4, zebrafish TAAR13e (Danio rerio, UniProt Q5QNP8, I215V/V266I); test: cell-based; settings: HEK-293 cells, Cre-Seap reporter
T4 sequence (Q5QNP8 1-341 I215V/V266I): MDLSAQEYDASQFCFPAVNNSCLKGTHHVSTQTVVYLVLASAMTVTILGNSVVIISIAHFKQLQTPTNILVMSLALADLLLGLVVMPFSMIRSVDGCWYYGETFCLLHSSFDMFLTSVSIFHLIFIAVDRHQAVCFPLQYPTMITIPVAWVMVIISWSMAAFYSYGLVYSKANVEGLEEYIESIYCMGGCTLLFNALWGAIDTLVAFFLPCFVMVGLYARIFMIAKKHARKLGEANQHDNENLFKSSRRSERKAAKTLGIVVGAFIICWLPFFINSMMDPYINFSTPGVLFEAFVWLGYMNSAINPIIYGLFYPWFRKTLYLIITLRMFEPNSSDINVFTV

zebrafish TAAR14d = target: T5, zebrafish TAAR14d (Danio rerio, UniProt U3JB35); test: cell-based; settings: HEK-293 cells, Cre-Seap reporter
T5 sequence (U3JB35 1-328): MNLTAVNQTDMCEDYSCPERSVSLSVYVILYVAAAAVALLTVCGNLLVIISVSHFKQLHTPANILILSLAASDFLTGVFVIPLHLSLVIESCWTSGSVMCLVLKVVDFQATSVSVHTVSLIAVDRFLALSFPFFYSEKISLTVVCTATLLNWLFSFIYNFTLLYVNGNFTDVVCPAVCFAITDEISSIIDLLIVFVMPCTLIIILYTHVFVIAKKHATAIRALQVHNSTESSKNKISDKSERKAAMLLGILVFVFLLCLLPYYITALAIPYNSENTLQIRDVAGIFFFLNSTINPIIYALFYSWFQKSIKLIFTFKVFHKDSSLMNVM

goldfish = tested on: goldfish; design: method as in Rolen, et al., 2003; Hara, 2006; settings: ref Rolen, et al., 2003, Hara, 2006; cited from earlier work
zebrafish TAAR13d = zebrafish TAAR13d (Danio rerio, UniProt Q5QNQ1, I38V/T66P/V128I/V187I); test: cell-based; settings: for EC50: HEK-293 cells, Cre-Seap reporter
zebrafish TAAR13d, sequence (Q5QNQ1 entry or part of it I38V/T66P/V128I/V187I): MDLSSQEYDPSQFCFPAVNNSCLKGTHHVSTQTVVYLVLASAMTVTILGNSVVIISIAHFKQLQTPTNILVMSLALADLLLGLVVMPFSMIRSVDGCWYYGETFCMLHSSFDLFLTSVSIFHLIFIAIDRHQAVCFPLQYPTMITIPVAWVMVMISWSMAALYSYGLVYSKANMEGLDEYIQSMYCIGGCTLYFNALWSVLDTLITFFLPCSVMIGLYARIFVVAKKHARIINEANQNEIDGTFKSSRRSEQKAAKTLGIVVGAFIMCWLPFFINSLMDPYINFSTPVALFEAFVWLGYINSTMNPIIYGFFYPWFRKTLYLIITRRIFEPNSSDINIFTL

zebrafish TAAR13a = zebrafish TAAR13a (Danio rerio, UniProt Q5QNP9, F294L/F316L/I267M/N226K/T142R); test: cell-based; settings: HEK-293 cells, Cre-Seap reporter
zebrafish TAAR13a, sequence (Q5QNP9 1-341 T142R/N226K/I267M/F294L/F316L): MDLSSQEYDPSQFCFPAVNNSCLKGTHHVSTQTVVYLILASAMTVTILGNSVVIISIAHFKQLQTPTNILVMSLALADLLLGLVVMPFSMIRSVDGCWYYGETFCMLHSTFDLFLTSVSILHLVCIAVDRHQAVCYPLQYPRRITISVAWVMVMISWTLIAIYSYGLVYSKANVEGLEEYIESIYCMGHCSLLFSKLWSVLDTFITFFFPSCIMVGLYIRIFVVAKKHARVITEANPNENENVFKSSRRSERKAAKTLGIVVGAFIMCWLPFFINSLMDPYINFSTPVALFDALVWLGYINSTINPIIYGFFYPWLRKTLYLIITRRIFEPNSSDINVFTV

TAAR16c D^5.42A mutant = test: Cre-Seap reporter gene assay, TAAR16c D^5.42A mutant; format: cell-based, zebrafish
TAAR13c^D112A = target: T6, TAAR13c^D112A (Danio rerio, UniProt Q5QNP2, D112A); format: cell-based; settings: any concentration tested, up to 1 mM
T6 construct: expressed in transfected cells; host or cells: HEK-293
T6 sequence (Q5QNP2 1-341 D112A): T1 sequence (Q5QNP2 1-341) with D112A

zebrafish = tested on: zebrafish; design: method as in Hussain et al., 2013; settings: ref Hussain et al., 2013; cited from earlier work
zebrafish TAAR16f = target: T7, zebrafish TAAR16f (Danio rerio, UniProt A0AC58GNM0, L317F/N20S/N8I/T68S, form not given); format: cell-based; settings: for EC50: HEK-293 cells, Cre-Seap reporter
T7 sequence (A0AC58GNM0 1-331 N8I/N20S/T68S/L317F): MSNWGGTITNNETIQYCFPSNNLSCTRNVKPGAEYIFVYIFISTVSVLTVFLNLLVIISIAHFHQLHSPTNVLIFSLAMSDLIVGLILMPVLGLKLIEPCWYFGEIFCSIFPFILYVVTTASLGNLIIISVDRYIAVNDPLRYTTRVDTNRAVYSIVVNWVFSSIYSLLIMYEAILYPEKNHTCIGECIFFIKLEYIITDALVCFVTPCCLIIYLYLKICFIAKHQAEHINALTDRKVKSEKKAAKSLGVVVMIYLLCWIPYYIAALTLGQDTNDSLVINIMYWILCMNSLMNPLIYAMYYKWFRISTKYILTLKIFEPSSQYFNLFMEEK

TAAR16f D^5.42A mutant = test: Cre-Seap reporter gene assay, TAAR16f D^5.42A mutant; format: cell-based, zebrafish
zebrafish TAAR16c = zebrafish TAAR16c (Danio rerio, UniProt A0AC58H3H2, N266T); format: cell-based
zebrafish TAAR16c, sequence (A0AC58H3H2 entry or part of it N266T): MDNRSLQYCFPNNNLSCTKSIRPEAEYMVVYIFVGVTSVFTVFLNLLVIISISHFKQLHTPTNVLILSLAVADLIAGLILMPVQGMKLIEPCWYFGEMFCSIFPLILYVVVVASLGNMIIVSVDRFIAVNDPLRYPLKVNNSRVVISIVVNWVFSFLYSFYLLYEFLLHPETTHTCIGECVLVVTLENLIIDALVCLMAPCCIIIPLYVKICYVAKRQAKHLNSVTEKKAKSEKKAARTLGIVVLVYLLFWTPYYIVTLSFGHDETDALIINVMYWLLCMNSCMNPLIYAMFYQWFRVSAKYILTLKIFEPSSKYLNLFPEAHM

TAAR10b = target: T8, TAAR10b (Danio rerio, UniProt Q5QNN3, A166T/H113R/V182I/V259M); test: Cre-Seap reporter gene assay, TAAR10b in Hana3A cells; format: cell-based, zebrafish
T8 sequence (Q5QNN3 1-336 H113R/A166T/V182I/V259M): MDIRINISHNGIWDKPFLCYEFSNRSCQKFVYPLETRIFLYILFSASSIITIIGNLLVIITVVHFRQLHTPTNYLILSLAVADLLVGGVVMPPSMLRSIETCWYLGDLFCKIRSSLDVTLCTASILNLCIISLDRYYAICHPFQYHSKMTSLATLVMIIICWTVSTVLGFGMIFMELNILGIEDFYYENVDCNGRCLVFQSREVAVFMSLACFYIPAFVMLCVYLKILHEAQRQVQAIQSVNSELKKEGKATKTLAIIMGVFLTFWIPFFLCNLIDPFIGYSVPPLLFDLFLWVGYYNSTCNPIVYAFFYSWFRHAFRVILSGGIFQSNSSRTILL

COc1cc(CCN)ccc1O [3-methoxytyramine]
activation of wild type TAAR13c (zebrafish TAAR13c; any concentration tested): failed to activate | EC50 (TAAR12i): 100 µM

COc1ccc2[nH]cc(CCN)c2c1 [5-methoxytryptamine]
EC50 (zebrafish TAAR10a; EC50, TAAR10a): ~20 µM

NCCCCN=C(N)N [Agmatine]
EC50 (zebrafish TAAR13e): ~1000 nM and 1000 nM | EC50 (zebrafish TAAR14d): ~100 µM and 100 µM | feeding-associated pecking behavior (goldfish): increase feeding-associated pecking behavior

NCCc1c[nH]cn1 [Histamine]
EC50 (zebrafish TAAR13d): ~7000 nM | EC50 (zebrafish TAAR13a): ~20 µM and 20 µM

CN1CCCCC1 [N-methylpiperidine]
response of TAAR16c with charge-neutralizing mutation of Asp^5.42 (TAAR16c D^5.42A mutant): completely eliminated responses

NCCCCCN [cadaverine]
EC50 (zebrafish TAAR13c; HEK-293 cells, Cre-Seap reporter, read-out: EC50 (half maximal response), TAAR13c): ~10 µM and 10 µM | activation of TAAR13c D112A mutant (TAAR13c^D112A): abrogates cadaverine responsiveness; also recorded: failed to activate | feeding-associated pecking behavior (goldfish): increase feeding-associated pecking behavior | avoidance behavior (zebrafish): evoke avoidance behavior

NCCCN [diaminopropane]
reduced sensitivity of TAAR13d relative to putrescine (zebrafish TAAR13d; compared with putrescine): ~ 3,000 fold

CC(C)CCO [isoamyl alcohol]
detection by TAAR16f (zebrafish TAAR16f): failed to detect | recognition by TAAR16f at 1 mM (zebrafish TAAR16f): not

CC(C)CCN [isoamylamine]
recognition by TAAR16f at 1 mM (zebrafish TAAR16f; 1 mM): recognizes | EC50 (zebrafish TAAR16f): ~200 µM | EC50 (zebrafish TAAR16f; listed as Isoamylamine): 200 µM | response of TAAR16f with charge-neutralizing mutation of Asp^5.42 (TAAR16f D^5.42A mutant): completely eliminated responses

C1CCNCC1 [piperidine]
agonism of TAAR16c (zebrafish TAAR16c): partial agonists

NCCCCN [putrescine]
EC50 (zebrafish TAAR13d): ~1000 nM and 1000 nM | feeding-associated pecking behavior (goldfish): increase feeding-associated pecking behavior | avoidance behavior (zebrafish): evoke avoidance behavior

C1CCNC1 [pyrrolidine]
agonism of TAAR16c (zebrafish TAAR16c; any concentration tested): partial agonists

NCCc1c[nH]c2ccc(O)cc12 [serotonin]
EC50 (zebrafish TAAR10a; read-out: EC50, TAAR10a): ~0.5 µM and 0.5 µM

C1CCOC1 [tetrahydrofuran]
agonism of TAAR16c (zebrafish TAAR16c): did not activate

NCCc1c[nH]c2ccccc12 [tryptamine]
EC50 (zebrafish TAAR10a; read-out: EC50, TAAR10a): ~70 µM | EC50 (TAAR10b): 50 µM
